Experiment [1] relates to Human breast squamous carcinoma cells HCC1806. The experiment is described as follows: Cell function assay (In-Cell Western, PAR/pADPr after MMS). To be noted: read-out: IC50 (nM) in cell function assay. Type of experiment: cell-based. The protocol:
2. Cell Function Assay (In-Cell Western)
• 1) Human breast squamous carcinoma cells HCC1806 (ATCC) were seeded to the 384-well plate (Corning, #3764) at 20,000 cells/well, incubated for 24 h in a CO2 (5%) incubator at 37° C. to allow for complete adherence of the cells; • 2) 120 nL compounds or DMSO were added to the 384-well plate by Echo 550 (LABCYTE, #550) (final concentrations of compounds: 30000 nM, 10000 nM, 3000 nM, 1000 nM, 300 nM, 100 nM, 30 nM, 10 nM, 3 nM, 1 nM, 0 nM), and then the cells were incubated for 1 h in a CO2 (5%) incubator at 37° C.; • 3) 40 nL MMS (methyl mesylate, Sigma, #129925)(final concentration: 0.5 mM) was added to the plate by Echo 550, and the cells were treated for 1 h in a CO2 (5%) incubator at 37° C.

The subject of the next experiment is HCC1806. The experiment is described as follows: Cell viability assay (CellTiter-Glo). To be noted: HCC1806, 7 days, CellTiter-Glo, read-out: IC50 (nM) in cell viability assay. The format is cell-based, Human. (In general: In ATP-based viability assays light output follows the ATP content of the culture.)
The target in the next experiment is PARG (Homo sapiens, UniProt Q86W56). The experiment in a line: Biochemical assay (PARG, TFMU-ADPr substrate).
Chain of PARG (Q86W56 whole entry): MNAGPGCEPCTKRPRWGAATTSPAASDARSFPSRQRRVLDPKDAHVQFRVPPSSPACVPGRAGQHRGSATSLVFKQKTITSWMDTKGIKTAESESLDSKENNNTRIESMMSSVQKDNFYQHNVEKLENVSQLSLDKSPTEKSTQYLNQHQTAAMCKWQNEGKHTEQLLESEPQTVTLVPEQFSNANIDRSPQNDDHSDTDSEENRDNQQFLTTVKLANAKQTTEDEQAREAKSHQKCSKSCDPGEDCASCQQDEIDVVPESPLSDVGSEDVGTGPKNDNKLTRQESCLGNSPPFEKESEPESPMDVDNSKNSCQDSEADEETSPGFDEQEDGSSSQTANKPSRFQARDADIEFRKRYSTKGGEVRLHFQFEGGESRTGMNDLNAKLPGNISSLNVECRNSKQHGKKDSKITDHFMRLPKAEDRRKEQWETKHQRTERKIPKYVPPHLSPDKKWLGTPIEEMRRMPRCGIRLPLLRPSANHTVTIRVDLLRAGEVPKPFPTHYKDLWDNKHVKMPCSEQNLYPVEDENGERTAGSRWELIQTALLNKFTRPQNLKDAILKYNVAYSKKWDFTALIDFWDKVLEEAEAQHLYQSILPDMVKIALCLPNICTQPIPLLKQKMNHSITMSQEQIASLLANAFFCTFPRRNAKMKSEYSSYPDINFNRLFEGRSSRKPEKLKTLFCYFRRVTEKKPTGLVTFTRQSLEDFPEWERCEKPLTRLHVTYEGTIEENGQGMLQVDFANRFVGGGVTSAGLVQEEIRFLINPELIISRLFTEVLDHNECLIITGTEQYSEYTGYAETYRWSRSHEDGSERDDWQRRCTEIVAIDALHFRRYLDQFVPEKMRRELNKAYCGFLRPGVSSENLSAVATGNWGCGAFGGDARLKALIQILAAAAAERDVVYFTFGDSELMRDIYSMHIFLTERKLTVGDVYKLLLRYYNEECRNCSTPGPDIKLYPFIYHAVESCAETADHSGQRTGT
[2] abbreviates: HCC1806, In-Cell Western, MMS treatment.
Setting [3] is: HCC1806, compound 1 h then 0.5 mM MMS 1 h, PAR/pADPr antibody, In-Cell Western.
The mark [4] stands for this setting: 4 nM PARG, 66.2 uM TFMU-ADPr, 3 min at room temperature.

Like-named read-outs stand apart in the source and are kept apart here.

Regarding `[2H]c1nc(-c2nnc(C(F)F)s2)n2cc(S(=O)(=O)NC3(C)COC3)c(F)c(N3CCN(C(=O)C(C)C)CC3)c12` [Example 155, 3-(5-(difluoromethyl)-1,3,4-thiadiazol-2-yl)-7-fluoro-8-(4-isobutyrylpiperazin-1-yl)-N-(3-methyloxetan-3-yl)imidazo[1,5-a]pyridine-6-sulfonamide-1-d], the half-inhibitory concentration (IC50) – broadly, the concentration needed to halve the response being measured – was 39.1 nM in experiment [1] (setting [2]); 100 to 500 nM in experiment [1] (setting [3]); 727 nM in the experiment on HCC1806; 500 to 5000 nM with HCC1806 (Homo sapiens, HCC1806, 168 h); < 100 nM against PARG (setting [4]); 1.68 nM on PARG (PARG, TFMU-ADPr substrate).
As for `CC1(NS(=O)(=O)c2cc(N3CCC(CO)CC3)c3nnc(-c4nnc(C(F)F)s4)n3c2)CC1` [Example 114, 3-(5-(difluoromethyl)-1,3,4-thiadiazol-2-yl)-8-(4-(hydroxymethyl)piperidin-1-yl)-N-(1-methylcyclopropyl)-[1,2,4]triazolo[4,3-a]pyridine-6-sulfonamide], the IC50 in experiment [1] (setting [2]) is 17.5 nM; in experiment [1] (setting [3]), < 100 nM; in the experiment on HCC1806 it was 462 nM; in the experiment with HCC1806 (Homo sapiens, HCC1806, 168 h) it was 500 to 5000 nM; at PARG (setting [4]), < 100 nM; at PARG (PARG, TFMU-ADPr substrate), 1.57 nM.
As to `O=S(=O)(NC1(CF)CC1)c1cc(N2CCC3(CCO3)CC2)c2nnc(-c3nnc(C(F)F)s3)n2c1` [Example 110, 3-(5-(difluoromethyl)-1,3,4-thiadiazol-2-yl)-N-(1-(fluoromethyl)cyclopropyl)-8-(1-oxa-7-azaspiro[3.5]nonan-7-yl)-[1,2,4]triazolo[4,3-a]pyridine-6-sulfonamide], the 50% inhibitory concentration (IC50) in experiment [1] (setting [2]) was 89.5 nM; in experiment [1] (setting [3]), < 100 nM; in the experiment with HCC1806, 850 nM; with HCC1806 (Homo sapiens, HCC1806, 168 h), 500 to 5000 nM; on PARG (setting [4]), < 100 nM; on PARG (PARG, TFMU-ADPr substrate), 14 nM.
Consider `[2H]c1nc(-c2nnc(C(F)F)s2)n2cc(S(=O)(=O)NC3(C#N)CC3)cc(N3CCN(C(=O)C4(C)CC4)[C@H](C)C3)c12` [Example 156, (R)—N-(1-cyanocyclopropyl)-3-(5-(difluoromethyl)-1,3,4-thiadiazol-2-yl)-8-(3-methyl-4-(1-methylcyclopropane-1-carbonyl)piperazin-1-yl)imidazo[1,5-a]pyridine-6-sulfonamide-1-d], for which the IC50 in experiment [1] (setting [2]) is 12 nM; in experiment [1] (setting [3]), < 100 nM; with HCC1806 it was 280 nM; in the experiment on HCC1806 (Homo sapiens, HCC1806, 168 h), < 500 nM; against PARG (setting [4]), < 100 nM; at PARG (PARG, TFMU-ADPr substrate) it was 6.92 nM.
For the compound `C[C@@H]1CN(c2cc(S(=O)(=O)NC3(C#N)CC3)cn3c(-c4nnc(C(F)F)s4)nc(Cl)c23)CCN1C(=O)C1(C)CC1` [Example 123, (R)-1-chloro-N-(1-cyanocyclopropyl)-3-(5-(difluoromethyl)-1,3,4-thiadiazol-2-yl)-8-(3-methyl-4-(1-methylcyclopropane-1-carbonyl)piperazin-1-yl)imidazo[1,5-a]pyridine-6-sulfonamide], the half-maximal inhibitory concentration (IC50) was 7.13 nM in experiment [1] (setting [2]); < 100 nM in experiment [1] (setting [3]); 584 nM in the experiment on HCC1806; 500 to 5000 nM with HCC1806 (Homo sapiens, HCC1806, 168 h); < 100 nM at PARG (setting [4]); 9.12 nM against PARG (PARG, TFMU-ADPr substrate).
For `O=S(=O)(NC1(CF)CC1)c1cc(N2CCC(CO)CC2)c2nnc(-c3nnc(C(F)F)s3)n2c1` [Example 108, 3-(5-(difluoromethyl)-1,3,4-thiadiazol-2-yl)-N-(1-(fluoromethyl)cyclopropyl)-8-(4-(hydroxymethyl)piperidin-1-yl)-[1,2,4]triazolo[4,3-a]pyridine-6-sulfonamide], the IC50 in experiment [1] (setting [2]) was 22.6 nM; in experiment [1] (setting [3]), < 100 nM; in the experiment on HCC1806, 520 nM; with HCC1806 (Homo sapiens, HCC1806, 168 h), 500 to 5000 nM; against PARG (setting [4]), < 100 nM; against PARG (PARG, TFMU-ADPr substrate) it was 1.5 nM.
Turning to `CC(C)C(=O)N1CCN(c2cc(S(=O)(=O)NC3(C#N)COC3)cn3c(-c4nnc(C(F)F)s4)ncc23)CC1` [Example 148, N-(3-cyanooxetan-3-yl)-3-(5-(difluoromethyl)-1,3,4-thiadiazol-2-yl)-8-(4-isobutyrylpiperazin-1-yl)imidazo[1,5-a]pyridine-6-sulfonamide], the IC50 in experiment [1] (setting [2]) is 8510 nM; in experiment [1] (setting [3]), > 1000 nM; with HCC1806, 8810 nM; in the experiment with HCC1806 (Homo sapiens, HCC1806, 168 h), 5000 to 30000 nM; on PARG (setting [4]) it was < 100 nM; at PARG (PARG, TFMU-ADPr substrate), 2.04 nM.
Take `CC(C)C(=O)N1CCN(c2cc(S(=O)(=O)NC3(C)CC3)cn3c(-c4nnc(C(F)F)s4)nnc23)CC1` [Example 99, 3-(5-(difluoromethyl)-1,3,4-thiadiazol-2-yl)-8-(4-isobutyrylpiperazin-1-yl)-N-(1-methylcyclopropyl)-[1,2,4]triazolo[4,3-a]pyridine-6-sulfonamide]: the IC50 in experiment [1] (setting [2]) is 26.8 nM; in experiment [1] (setting [3]), < 100 nM; with HCC1806, 372 nM; in the experiment on HCC1806 (Homo sapiens, HCC1806, 168 h), < 500 nM; on PARG (setting [4]), < 100 nM; at PARG (PARG, TFMU-ADPr substrate), 6.51 nM.
For `CC(C)C(=O)N1CCN(c2cc(S(=O)(=O)NC3(C)CCOC3)cn3c(-c4nnc(C(F)F)s4)ncc23)CC1` (stereo not drawn) [Example 58, 3-(5-(difluoromethyl)-1,3,4-thiadiazol-2-yl)-8-(4-isobutyrylpiperazin-1-yl)-N-(3-methyltetrahydrofuran-3-yl)imidazo[1,5-a]pyridine-6-sulfonamide], the IC50 is 2870 nM in experiment [1] (setting [2]); > 1000 nM in experiment [1] (setting [3]); > 30000 nM with HCC1806 (Homo sapiens, HCC1806, 168 h); < 100 nM against PARG (setting [4]); 25.1 nM against PARG (PARG, TFMU-ADPr substrate).
As to `N#CC1(NS(=O)(=O)c2cc(N3CCC4(CC3)COC4)c3cnc(-c4nnc(C(F)F)s4)n3c2)CC1` [Example 39, N-(1-cyanocyclopropyl)-3-(5-(difluoromethyl)-1,3,4-thiadiazol-2-yl)-8-(2-oxa-7-azaspiro[3.5]nonan-7-yl)imidazo[1,5-a]pyridine-6-sulfonamide], the concentration for half-maximal inhibition (IC50) was 13.2 nM in experiment [1] (setting [2]); < 100 nM in experiment [1] (setting [3]); < 100 nM against PARG (setting [4]); 2.72 nM at PARG (PARG, TFMU-ADPr substrate).
With `CC(C)C(=O)N1CCN(c2cc(S(=O)(=O)NC3(C)CC3)cn3c(-c4nnc(C(F)F)s4)nc(C#N)c23)CC1` [Example 163, 1-cyano-3-(5-(difluoromethyl)-1,3,4-thiadiazol-2-yl)-8-(4-isobutyrylpiperazin-1-yl)-N-(1-methylcyclopropyl)imidazo[1,5-a]pyridine-6-sulfonamide], the IC50 was 5.14 nM in experiment [1] (setting [2]); < 100 nM in experiment [1] (setting [3]); < 100 nM against PARG (setting [4]); 1.58 nM against PARG (PARG, TFMU-ADPr substrate).
Regarding `CC(C)C(=O)N1CCN(c2cc(S(=O)(=O)NC3(C#N)CC3)cn3c(-c4nnc(C(F)F)s4)ncc23)C[C@@H]1C` [Example 85, (S)-N-(1-cyanocyclopropyl)-3-(5-(difluoromethyl)-1,3,4-thiadiazol-2-yl)-8-(4-isobutyryl-3-methylpiperazin-1-yl)imidazo[1,5-a]pyridine-6-sulfonamide], the half-maximal inhibitory concentration (IC50) in experiment [1] (setting [2]) was 13.7 nM; in experiment [1] (setting [3]) it was < 100 nM; against PARG (setting [4]), < 100 nM; against PARG (PARG, TFMU-ADPr substrate) it was 15.2 nM.
As to `CC(C)C[C@@H]1CN(c2cc(S(=O)(=O)NC3(C#N)CC3)cn3c(-c4nnc(C(F)F)s4)ncc23)CCN1C(=O)C1(C)CC1` [Example 97, (R)-N-(1-cyanocyclopropyl)-3-(5-(difluoromethyl)-1,3,4-thiadiazol-2-yl)-8-(3-isobutyl-4-(1-methylcyclopropane-1-carbonyl)piperazin-1-yl)imidazo[1,5-a]pyridine-6-sulfonamide], the IC50 is 7.52 nM in experiment [1] (setting [2]); < 100 nM in experiment [1] (setting [3]); < 100 nM against PARG (setting [4]); 5.01 nM on PARG (PARG, TFMU-ADPr substrate).
With `[2H]c1nc(-c2nnc(C(F)F)s2)n2cc(S(=O)(=O)NC3(CF)COC3)c(F)c(N3CCN(C(=O)C(C)C)CC3)c12` [Example 154, 3-(5-(difluoromethyl)-1,3,4-thiadiazol-2-yl)-7-fluoro-N-(3-(fluoromethyl)oxetan-3-yl)-8-(4-isobutyrylpiperazin-1-yl)imidazo[1,5-a]pyridine-6-sulfonamide-1-d], the concentration for half-maximal inhibition (IC50) in experiment [1] (setting [2]) is 9.94 nM; in experiment [1] (setting [3]), < 100 nM; on PARG (setting [4]), < 100 nM; on PARG (PARG, TFMU-ADPr substrate), 8.22 nM.
In the case of `CC(C)[C@@H]1CN(c2cc(S(=O)(=O)NC3(C#N)CC3)cn3c(-c4nnc(C(F)F)s4)ncc23)CCN1C(=O)C1(C)CC1` [Example 96, (R)-N-(1-cyanocyclopropyl)-3-(5-(difluoromethyl)-1,3,4-thiadiazol-2-yl)-8-(3-isopropyl-4-(1-methylcyclopropane-1-carbonyl)piperazin-1-yl)imidazo[1,5-a]pyridine-6-sulfonamide], the half-inhibitory concentration (IC50) in experiment [1] (setting [2]) is 1.68 nM; in experiment [1] (setting [3]), < 100 nM; against PARG (setting [4]) it was < 100 nM; against PARG (PARG, TFMU-ADPr substrate) it was 2.09 nM.
As for `O=S(=O)(NC1(CF)CC1)c1cc(N2CCC(O)(C(F)(F)F)CC2)c2nnc(-c3nnc(C(F)F)s3)n2c1` [Example 115, 3-(5-(difluoromethyl)-1,3,4-thiadiazol-2-yl)-N-(1-(fluoromethyl)cyclopropyl)-8-(4-hydroxy-4-(trifluoromethyl)piperidin-1-yl)-[1,2,4]triazolo[4,3-a]pyridine-6-sulfonamide], the IC50 in experiment [1] (setting [2]) is 8.51 nM; in experiment [1] (setting [3]), < 100 nM; against PARG (setting [4]), < 100 nM; against PARG (PARG, TFMU-ADPr substrate) it was 1.88 nM.

The values above are taken from patent US20260258035A1, “FIVE-MEMBERED AND SIX-MEMBERED NITROGEN-CONTAINING COMPOUND, AND INTERMEDIATE, PREPARATION METHOD AND USE THEREOF” (HANGZHOU SYNRX THERAPEUTICS BIOMEDICAL TECHNOLOGY CO., LTD., priority 2022, published 2026).
